From ChEMBL document CHEMBL2086310, “Alkaloids from Pachysandra terminalis inhibit breast cancer invasion and have potential for development as antimetastasis therapeutic agents” (J Nat Prod, 2012)
Calls of active or inactive are those of the source. No cut-off for these calls is given here.

Legend:
MDA-MB-231 [1] = assay: Inhibition of epithelial growth factor-induced cell migration of human MDA-MB-231 cells pre-incubated for 24 hrs by cell invasion assay; type: functional, cell-based
MDA-MB-231 [2] = assay: Inhibition of epithelial growth factor-induced cell migration of human MDA-MB-231 cells at 10 uM pre-incubated for 24 hrs by cell invasion assay; type: functional, cell-based
[3] = target: Integrin beta-1 (Homo sapiens) (UniProt P05556); assay: Inhibition of integrin beta1 phosphorylation in human […] cells at 1 to 10 uM incubated for 24 hrs by Western blot; type: cell-based
Sequence of Integrin beta-1 (Homo sapiens) (P05556 whole entry): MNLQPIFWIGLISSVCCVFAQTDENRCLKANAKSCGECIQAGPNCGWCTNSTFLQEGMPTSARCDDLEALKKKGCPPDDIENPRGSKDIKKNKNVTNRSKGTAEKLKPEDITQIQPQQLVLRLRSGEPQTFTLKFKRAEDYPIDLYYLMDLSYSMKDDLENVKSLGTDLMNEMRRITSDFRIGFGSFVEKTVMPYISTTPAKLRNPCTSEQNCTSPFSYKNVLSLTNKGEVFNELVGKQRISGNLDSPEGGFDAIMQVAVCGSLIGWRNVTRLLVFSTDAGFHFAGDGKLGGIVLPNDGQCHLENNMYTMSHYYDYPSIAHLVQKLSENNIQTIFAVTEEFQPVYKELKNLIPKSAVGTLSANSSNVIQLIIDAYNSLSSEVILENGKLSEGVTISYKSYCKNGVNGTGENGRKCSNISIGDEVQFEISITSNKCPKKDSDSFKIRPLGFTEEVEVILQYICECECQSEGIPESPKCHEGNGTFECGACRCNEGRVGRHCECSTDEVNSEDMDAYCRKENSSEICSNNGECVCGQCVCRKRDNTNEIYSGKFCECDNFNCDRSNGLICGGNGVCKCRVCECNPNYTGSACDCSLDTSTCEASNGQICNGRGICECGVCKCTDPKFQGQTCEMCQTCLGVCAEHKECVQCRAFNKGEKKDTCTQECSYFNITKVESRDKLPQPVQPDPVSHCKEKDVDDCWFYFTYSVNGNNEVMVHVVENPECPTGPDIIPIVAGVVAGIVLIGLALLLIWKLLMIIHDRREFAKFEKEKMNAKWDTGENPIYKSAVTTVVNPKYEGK

Structure (SMILES)	IC50 (MDA-MB-231 [1])	inhibition [3]	inhibition (MDA-MB-231 [2])
CC(=O)[C@H]1CC[C@H]2[C@@H]3CC[C@H]4C[C@H](N(C)C(=O)C=C(C)C)CC[C@]4(C)[C@H]3CC[C@]12C			inactive
CC(=O)[C@H]1CC[C@H]2[C@@H]3CC[C@H]4C[C@H](N(C)C(=O)c5ccccc5)CC[C@]4(C)[C@H]3CC[C@]12C			inactive
CC(=O)[C@H]1CC[C@H]2[C@@H]3CC[C@H]4C[C@]5(CC[C@]4(C)[C@H]3CC[C@]12C)c1ccccc1C(=O)N5C			inactive
C[C@@H]([C@H]1CC[C@H]2[C@@H]3CC[C@H]4C[C@@H](NC(=O)c5cccnc5)CC[C@]4(C)[C@H]3CC[C@]12C)N(C)C [EPIPACHYSAMINE B]	0.35 µM		
O=c1cc(N2CCOCC2)oc2c(-c3ccccc3)cccc12 [LY-294002]	0.38 µM		
CC(C)[C@@H]1CN([C@H]2CC[C@@]3(C)[C@@H](CC[C@@H]4[C@@H]3CC[C@]3(C)[C@@H]([C@H](C)N(C)C)CC[C@@H]43)[C@H]2O)C1=O [PACHYSTERMINE B]	0.19 µM		
C[C@@H]([C@H]1CC[C@H]2[C@@H]3CC[C@H]4[C@H](O)[C@@H](O)CC[C@]4(C)[C@H]3CC[C@]12C)N(C)C [TERMINALINE]	0.36 µM		
CC(=O)O[C@@H]1C[C@]2(C)[C@@H]([C@H](C)N(C)C)[C@@H](O)C[C@H]2[C@@H]2CC[C@H]3[C@@H](O)[C@@H](N4C[C@H](C(C)C)C4=O)C[C@@H](OC(C)=O)[C@]3(C)[C@H]21 [TERMINAMINE B]	0.2 µM		
CC(=O)O[C@@H]1C[C@H](N2C[C@H](C(C)C)C2=O)[C@H](O)[C@@H]2CC[C@@H]3[C@H]([C@H](OC(=O)CC(C)C)C[C@]4(C)[C@@H]([C@H](C)N(C)C)[C@@H](O)C[C@@H]34)[C@@]12C [TERMINAMINE C]	0.08 µM		

Second part, led by results:

IC50 (MDA-MB-231 [1])	inhibition [3]	Structure (SMILES)	inhibition (MDA-MB-231 [2])
0.87 µM		C/C=C1/C(=O)C[C@H]2[C@@H]3CC[C@H]4C[C@@H](N(C)C)CC[C@]4(C)[C@H]3CC[C@]12C	
0.41 µM		CC(C)=CC(=O)N[C@H]1CC[C@@]2(C)[C@@H](CC[C@@H]3[C@@H]2CC[C@]2(C)[C@@H]([C@H](C)N(C)C)CC[C@@H]32)C1 [EPIPACHYSAMINE E]	
0.32 µM		CC(C)[C@@H]1CN([C@H]2CC[C@@]3(C)[C@@H](CC[C@@H]4[C@@H]3CC[C@]3(C)[C@@H]([C@H](C)N(C)C)CC[C@@H]43)C2=O)C1=O [PACHYSTERMINE A]	
0.18 µM	Dose-dependent effect	CC(C)[C@H]1CN([C@H]2CC[C@@]3(C)[C@@H](CC[C@@H]4[C@@H]3CC[C@]3(C)[C@@H]([C@H](C)N(C)C)[C@@H](O)C[C@@H]43)C2=O)C1=O [TERMINAMINE A]	
0.2 µM		CC(C)=C1CN([C@@H]2CC[C@@]3(C)[C@@H](CC[C@@H]4[C@@H]3CC[C@]3(C)[C@@H]([C@H](C)N(C)C)[C@@H](O)C[C@@H]43)[C@H]2O)C1=O [TERMINAMINE D]	
0.07 µM		CC(C)=C1CN([C@@H]2CC[C@@]3(C)[C@@H](CC[C@@H]4[C@@H]3CC[C@]3(C)[C@@H]([C@H](C)N(C)C)CC[C@@H]43)[C@H]2O)C1=O [TERMINAMINE E]	
1.74 µM		C/C=C1\C(=O)C[C@H]2[C@@H]3CC[C@H]4C[C@@H](N(C)C)CC[C@]4(C)[C@H]3CC[C@]12C [Z-salignone]	
